Conditions: 323.14 K, Liquid, Vibrating tube method

CCCCCCC(=O)OCC(COC(=O)CCCCCC)(COC(=O)CCCCCC)COC(=O)CCCCCC [pentaerythritol tetraheptanoate]
Conditions	mass density [kg/m3]
1867.1 kPa	956.8
1879.2 kPa	956.9
1889.3 kPa	956.8
1901.4 kPa	957
1911.9 kPa	956.9
1922.6 kPa	956.9
1933.4 kPa	956.9
1945.7 kPa	956.9
1956.8 kPa	957
1967.4 kPa	957
1980.8 kPa	957
1992.6 kPa	957
2003.7 kPa	957.1
2015.1 kPa	956.9
2026.2 kPa	956.9
2040.3 kPa	957.1
2051.7 kPa	957
2063 kPa	957
2075 kPa	956.9
2089.2 kPa	957.1
2101.9 kPa	957
2226.1 kPa	957
2302.3 kPa	957.1
2543.1 kPa	957.3
2581.9 kPa	957.3
2614.7 kPa	957.4
2750.1 kPa	957.5
2958.7 kPa	957.6
3185.1 kPa	957.8
3256.6 kPa	957.9
3279.3 kPa	957.8
3302.3 kPa	957.9
3329.7 kPa	957.8
3352.8 kPa	957.8
3377 kPa	957.9
3405.8 kPa	957.9
3429.7 kPa	958.1
3454.8 kPa	958
3479.6 kPa	958
3509.6 kPa	958
3534.6 kPa	958.1
3565.2 kPa	957.9
3591.4 kPa	958.1
3617.6 kPa	958
3974.4 kPa	958.4
4012.4 kPa	958.4
4041.1 kPa	958.3
4057.6 kPa	958.4
4063.1 kPa	958.4
4064.9 kPa	958.3
4065.5 kPa	958.5
4066.2 kPa	958.5
4067.3 kPa	958.5
4068.5 kPa	958.5
4069.4 kPa	958.6
4069.5 kPa	958.5
4070.6 kPa	958.4
4070.9 kPa	958.4
4071.6 kPa	958.4
4087 kPa	958.4
4104.9 kPa	958.6
4128 kPa	958.5
4142.2 kPa	958.4
4163.9 kPa	958.4
4182.2 kPa	958.4
4200.8 kPa	958.5
4223.1 kPa	958.5
4242.2 kPa	958.5
4261 kPa	958.6
4283.7 kPa	958.6
4303.6 kPa	958.5
4323.2 kPa	958.5
4347.4 kPa	958.6
4367.2 kPa	958.6
4384.2 kPa	958.6
4401.5 kPa	958.6
4419 kPa	958.8
4440.1 kPa	958.7
4458.6 kPa	958.6
4475.9 kPa	958.6
4487.7 kPa	958.7
4498.8 kPa	958.7
4507.3 kPa	958.8
4516.1 kPa	958.6
4528.2 kPa	958.7
4546.9 kPa	958.7
4567.4 kPa	958.6
4588 kPa	958.7
4612.9 kPa	958.7
4634.2 kPa	958.7
4656 kPa	958.8
4677.4 kPa	958.8
4703.4 kPa	958.9
4725.2 kPa	958.9
4747.6 kPa	958.9
4774 kPa	958.9
4796.4 kPa	958.9
4819 kPa	958.9
4845.9 kPa	958.9
4869.6 kPa	959
4893.1 kPa	959
4921 kPa	959
4945 kPa	958.9
4968.9 kPa	959
4997.5 kPa	959
5022.2 kPa	959
5047.1 kPa	959.1
5072.5 kPa	959.1
5103.3 kPa	959.1
5129.3 kPa	959.1
5156.3 kPa	959.1
5189.2 kPa	959.2
5217.4 kPa	959.1
5240.4 kPa	959.1
5260.4 kPa	959.1
5280.7 kPa	959.4
5304 kPa	959.2
5323.4 kPa	959.2
5347.3 kPa	959.4
5367.7 kPa	959.3
5388.5 kPa	959.3
5408.9 kPa	959.3
5429.5 kPa	959.2
5454.7 kPa	959.2
5475.8 kPa	959.3
5497.3 kPa	959.3
5522.7 kPa	959.4
5543.9 kPa	959.5
5565.6 kPa	959.4
5591.3 kPa	959.3
5613.3 kPa	959.5
5635.4 kPa	959.4
5662.4 kPa	959.4
5684.7 kPa	959.6
5707.9 kPa	959.4
5735.2 kPa	959.5
5758 kPa	959.5
5781.4 kPa	959.5
5804.9 kPa	959.7
5833.6 kPa	959.6
5857.5 kPa	959.6
5886 kPa	959.5
5910.2 kPa	959.7
5935.4 kPa	959.7
5964.8 kPa	959.7
5989.9 kPa	959.7
6015.7 kPa	959.6
6041.2 kPa	959.8
6072.5 kPa	959.7
6099.5 kPa	959.8
6127 kPa	959.7
6154.7 kPa	959.8
6180.8 kPa	959.8
6202.1 kPa	959.8
6224.2 kPa	959.8
6246.2 kPa	959.9
6272.6 kPa	959.8
6294.4 kPa	960
6316.9 kPa	959.8
6344 kPa	959.8
6366.6 kPa	959.9
6393.8 kPa	960
6417.3 kPa	960
6441.6 kPa	959.9
6466 kPa	960
6489.5 kPa	960.2
6513.7 kPa	960
6542.9 kPa	960
6566.4 kPa	960
6595.3 kPa	960.1
6619.5 kPa	960.1
6644.3 kPa	960
6674.1 kPa	960.1
6699.1 kPa	960.1
6724.7 kPa	960.1
6755.6 kPa	960.2
6782.2 kPa	960.3
6809 kPa	960.2
6835.2 kPa	960.2
6861.8 kPa	960.1
6893.8 kPa	960.2
6920.9 kPa	960.2
6948.7 kPa	960.3
6976.5 kPa	960.3
7009.5 kPa	960.4
7037.3 kPa	960.3
7072 kPa	960.4
7101 kPa	960.5
7131.4 kPa	960.4
7161.8 kPa	960.4
7190 kPa	960.5
7218.1 kPa	960.4
7240 kPa	960.6
7262.7 kPa	960.5
7289.6 kPa	960.7
7312 kPa	960.5
7334.9 kPa	960.6
7357.8 kPa	960.5
7385.4 kPa	960.6
7408.7 kPa	960.6
7433.1 kPa	960.6
7457.4 kPa	960.6
7486.4 kPa	960.7
7510.8 kPa	960.7
7534.2 kPa	960.6
7558.2 kPa	960.7
7587.6 kPa	960.7
7611.9 kPa	960.8
7637.3 kPa	960.8
7666.8 kPa	960.8
7692.5 kPa	960.7
7717.9 kPa	960.9
7743.3 kPa	960.9
7773.8 kPa	960.8
7799.7 kPa	960.7
7826.1 kPa	960.9
7857.2 kPa	961
7883.6 kPa	960.9
7910 kPa	961
7941.6 kPa	961
7968.3 kPa	961
7995.6 kPa	961
8028.4 kPa	961
8056 kPa	961.1

— the NIST ThermoML archive (doi:10.1021/je060271a)
